Data reported in US8202862B2, “Substituted piperidines” (Bayer Intellectual Property GmbH, priority 2009, dated 2012).

Tests used:
[1] = target: T1, human protease activated receptor 1 (PAR1) (Homo sapiens, UniProt P25116); test: Cellular functional in vitro test (PAR1 test cell, aequorin luminescence); assay type: cell-based; conditions: HEK293-derived PAR1 test cell; PAR1 agonist at EC50; calcium/aequorin luminescence
T1 construct: the cell stably expresses the endogenous human PAR1 receptor; endogenous in cells; host or cells: recombinant HEK293-derived cell line; only the mitochondrial aequorin is recombinant
T1 sequence (P25116 22-425): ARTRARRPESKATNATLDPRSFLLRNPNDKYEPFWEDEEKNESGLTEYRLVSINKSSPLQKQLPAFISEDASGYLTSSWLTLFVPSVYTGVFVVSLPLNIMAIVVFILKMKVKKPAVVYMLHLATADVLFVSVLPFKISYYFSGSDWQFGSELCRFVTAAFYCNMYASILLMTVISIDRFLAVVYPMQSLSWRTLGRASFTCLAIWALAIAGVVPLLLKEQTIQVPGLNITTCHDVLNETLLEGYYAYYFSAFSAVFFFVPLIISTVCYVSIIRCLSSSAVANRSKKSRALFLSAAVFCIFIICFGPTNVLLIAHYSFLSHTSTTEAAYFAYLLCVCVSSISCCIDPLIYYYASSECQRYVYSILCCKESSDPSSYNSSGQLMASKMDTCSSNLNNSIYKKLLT
From the text: Cellular Functional in vitro Test
A recombinant cell line is used to identify […] of the human protease activated receptor 1 (PAR1) and to quantify the activity of the substances described herein. The cell is originally derived from a human embryonal kidney cell (HEK293; ATCC: American Type Culture Collection, Manassas, Va. 20108, U.S.A.). The test cell line constitutively expresses a modified form of the calcium-sensitive photoprotein aequorin which, after reconstitution with the cofactor coelenterazine, emits light when the free calcium concentration in the inner mitochondrial compartment is increased (Rizzuto R, Simpson A W, Brini M, Pozzan T.; Nature 1992, 358, 325-327). Additionally, the cell stably expresses the endogenous human PAR1 receptor and the endogenous purinergic receptor P2Y2. The resulting PAR1 test cell responds to stimulation of the endogenous PAR1 or P2Y2 receptor with an intracellular release of calcium ions, which can be quantified through the resulting aequorin luminescence with a suitable luminometer (Milligan G, Marshall F, Rees S, Trends in Pharmacological Sciences 1996, 17, 235-237).
For the testing of the substance specificity, the effect thereof after activation of the endogenous PAR1 receptor is compared with the effect after activation of the endogenous purinergic P2Y2 receptor which utilizes the same intracellular signal path.
Test procedure: The cells are plated out two days (48 hours) before the test in culture medium (DMEM F12, supplemented with 10% FCS, 2 mM glutamine, 20 mM HEPES, 1.4 mM pyruvate, 0.1 mg/ml gentamycin, 0.15% sodium bicarbonate; BioWhittaker Cat. # BE04-687Q; B-4800 Verviers, Belgium) in 384-well microtitre plates and kept in a cell incubator (96% atmospheric humidity, 5% v/v CO2, 37° C.). On the day of the test, the culture medium is replaced by a Tyrode's solution (in mM: 140 sodium chloride, 5 potassium chloride, 1 magnesium chloride, 2 calcium chloride, 20 glucose, 20 HEPES), which additionally contains the cofactor coelenterazine (25 μM) and glutathione (4 mM), and the microtitre plate is then incubated for a further 3-4 hours. The test substances are then pipetted onto the microtitre plate, and 5 minutes after the transfer of the test substances into the wells of the microtitre plate the plate is transferred into the luminometer, a PAR1 agonist concentration which corresponds to EC50 is added and the resulting light signal is immediately measured in the luminometer. To distinguish an antagonist substance action from a toxic action, the endogenous purinergic receptor is immediately subsequently activated with agonist (ATP, final concentration 10 μM) and the resulting light signal is measured.

platelet-rich plasma = test: Platelet aggregation in plasma (triggered by thrombin receptor agonist TRAP6, SFLLRN; turbidimetry according to Born); assay type: cell-based; conditions: 10 min, human platelet-rich plasma, 10 min at 37° C.
Protocol: 1.c) Platelet Aggregation in Plasma
Platelet aggregation is determined using blood from healthy volunteers of both genders, who had not received any thrombocyte aggregation-influencing medication for the last ten days. The blood is taken up into monovettes (Sarstedt, Nümbrecht, Germany) which contain, as anticoagulant, sodium citrate 3.8% (1 part citrate+9 parts blood). To obtain platelet-rich plasma, the citrated whole blood is centrifuged at 140 g for 20 min.
For the aggregation measurements, aliquots of the platelet-rich plasma with increasing concentrations of test substance are incubated at 37° C. for 10 min. Subsequently, aggregation is triggered by addition of a thrombin receptor agonist (TRAP6, SFLLRN) in an aggregometer and determined at 37° C. by means of the turbidimetry method according to Born (Born, G. V. R., Cross M. J., The Aggregation of Blood Platelets; J. Physiol. 1963, 168, 178-195). The SFLLRN concentration leading to maximum aggregation is, if appropriate, determined individually for each donor.
To calculate the inhibitory effect, the maximum increase in light transmission (amplitude of the aggregation curve in %) is determined within 5 minutes after addition of the agonist in the presence and absence of test substance, and the inhibition is calculated. The inhibition curves are used to calculate the concentration which inhibits aggregation by 50%.

Row | Structure (SMILES) | IC50 [1] [nM] | IC50 (platelet-rich plasma) [nM]
1 | CCc1ccc(C2CC(c3nc(CCOC)no3)CN(C(=O)N3CCS(=O)(=O)CC3)C2)cc1 (stereo not shown) [Example 13, (1,1-Dioxidothiomorpholin-4-yl){3-(4-ethylphenyl)-5-[3-(2-methoxyethyl)-1,2,4-oxadiazol-5-yl]-piperidin-1-yl}methanone] | – | 0.17
2 | CC(F)(F)c1ccc(C2CC(c3nc(C4CC4)no3)CN(C(=O)N3CC[S+]([O-])CC3)C2)cc1 (single isomer, unassigned) [Example 52, {3-(3-Cyclopropyl-1,2,4-oxadiazol-5-yl)-5-[4-(1,1-difluoroethyl)phenyl]piperidin-1-yl}-(1-oxido-thiomorpholin-4-yl)methanone] | 4.7 | 0.58
3 | CC(F)(F)c1ccc(C2CC(c3nc(C4CC4)no3)CN(C(=O)N3CCS(=O)(=O)CC3)C2)cc1 (single isomer, unassigned) [Example 54, {3-(3-Cyclopropyl-1,2,4-oxadiazol-5-yl)-5-[4-(1,1-difluoroethyl)phenyl]piperidin-1-yl}-(1,1-dioxidothiomorpholin-4-yl)methanone] | 4.3 | –
4 | COCCc1noc(C2CC(c3ccc(OC(F)(F)F)cc3)CN(C(=O)N3CC[S+]([O-])CC3)C2)n1 (racemic) [Example 1, {3-[3-(2-Methoxyethyl)-1,2,4-oxadiazol-5-yl]-5-[4-(trifluoromethoxy)phenyl]piperidin-1-yl}-(oxidothiomorpholin-4-yl)methanone] | 43 | –
5 | COC1(c2noc(C3CC(c4ccc(CC(F)(F)F)cc4)CN(C(=O)N4CCS(=O)(=O)CC4)C3)n2)CC1 (racemic) [Example 61, (1,1-Dioxidothiomorpholin-4-yl){3-[3-(1-methoxycyclopropyl)-1,2,4-oxadiazol-5-yl]-5-[4-(2,2,2-trifluoroethyl)phenyl]piperidin-1-yl}methanone] | 15.7 | –
6 | CCOCCc1noc(C2CC(c3ccc(C(F)(F)F)cc3)CN(C(=O)N3CCS(=O)(=O)CC3)C2)n1 (single isomer, unassigned) [Example 31, (1,1-Dioxidothiomorpholin-4-yl){3-[3-(2-ethoxyethyl)-1,2,4-oxadiazol-5-yl]-5-[4-(trifluoromethyl)phenyl]piperidin-1-yl}methanone] | 32 | –

More lines, now with the values ahead:

Row | IC50 [1] [nM] | IC50 (platelet-rich plasma) [nM] | Structure (SMILES)
7 | 8 | 0.49 | O=C(N1CCS(=O)(=O)CC1)N1CC(c2ccc(OC(F)(F)F)cc2)CC(c2nc(C3CC3)no2)C1 (single isomer, unassigned) [Example 10, {3-(3-Cyclopropyl-1,2,4-oxadiazol-5-yl)-5-[4-(trifluoromethoxy)phenyl]piperidin-1-yl}(1,1-dioxidothiomorpholin-4-yl)methanone]
8 | 5.1 | – | CCc1ccc(C2CC(c3nc(C4CC4)no3)CN(C(=O)N3CCS(=O)(=O)CC3)C2)cc1 (single isomer, unassigned) [Example 15, [3-(3-Cyclopropyl-1,2,4-oxadiazol-5-yl)-5-(4-ethylphenyl)piperidin-1-yl](1,1-dioxidothiomorpholin-4-yl)methanone]
9 | 23 | – | O=C(N1CC[S+]([O-])CC1)N1CC(c2ccc(C(F)(F)F)cc2)CC(c2nc(C3CC3)no2)C1 (racemic) [Example 20, {3-(3-Cyclopropyl-1,2,4-oxadiazol-5-yl)-5-[4-(trifluoromethyl)phenyl]piperidin-1-yl}(1-oxidothio-morpholin-4-yl)methanone]
10 | 33 | 0.29 | COCCc1noc(C2CC(c3ccc(OC(F)(F)F)cc3)CN(C(=O)N3CCS(=O)(=O)CC3)C2)n1 (single isomer, unassigned) [Example 8, (1,1-Dioxidothiomorpholin-4-yl){3-[3-(2-methoxyethyl)-1,2,4-oxadiazol-5-yl]-5-[4-(trifluoromethoxy)phenyl]piperidin-1-yl}methanone]
